Measured values as given in PubChem BioAssay (NCI).
Where “and” joins values, the source holds several entries; their conditions need not be identical. Equal entries are not always repeated.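 Cells were grown in 96-well plates and exposed to each compound for 48 hours at five concentrations; endpoints were interpolated linearly between bracketing concentrations, or set to the highest concentration if not reached. Here, GI50 denotes the concentration required for 50% inhibition of growth. At the TGI there is no net growth.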

Legend:
Assay in all cases: DTP human tumour cell line panel, 48 h
SR leukemia = system: SR leukemia
HCT-15 colon = system: HCT-15 colon
MALME-3M melanoma = system: MALME-3M melanoma
ACHN renal = system: ACHN renal
NCI-H460 lung = system: NCI-H460 lung
SK-MEL-5 melanoma = system: SK-MEL-5 melanoma
MCF7 breast = system: MCF7 breast
SF-539 CNS = system: SF-539 CNS
LOX IMVI melanoma = system: LOX IMVI melanoma
HCC-2998 colon = system: HCC-2998 colon

SMILES | TGI (SR leukemia) [µM] | TGI (HCT-15 colon) | TGI (MALME-3M melanoma) [µM] | TGI (ACHN renal) [µM] | TGI (NCI-H460 lung) [µM] | TGI (SK-MEL-5 melanoma) | TGI (MCF7 breast) | TGI (SF-539 CNS) | TGI (LOX IMVI melanoma) | TGI (HCC-2998 colon) | GI50 (SR leukemia) | GI50 (HCT-15 colon) | GI50 (MALME-3M melanoma) | GI50 (ACHN renal) | GI50 (NCI-H460 lung) | GI50 (SK-MEL-5 melanoma) | GI50 (MCF7 breast) | GI50 (LOX IMVI melanoma) | GI50 (HCC-2998 colon)
C=C(C)C1CC2=C(C(=O)OC)C=C(O2)C(C(=C)C)[C@@H]2OC(=O)/C(=C\C1O)[C@H]2N(C)C (some centres not stated) | > 41.2 | 22.5 µM | 34.5 | 24 | 31.4 | 27.9 µM | 24.9 µM | 22.9 µM | 24.2 µM | 29 µM | – | – | – | – | – | – | – | – | –
COC(=O)CCCc1ccc2c(c1)CCC2 | > 100 | > 100 µM | > 100 | > 100 | > 100 | > 100 µM | > 100 µM | > 100 µM | > 100 µM | > 100 µM | – | – | – | – | – | – | – | – | –
COC(=O)c1ccc(/C=C/C2=CC(=O)C=CC2=O)cc1 | 12.7 | 36.8 µM | 36.9 | 32.7 | > 64.6 | > 52 µM | 27.8 µM | 45.6 µM | 23.2 µM | 38.5 µM | – | – | – | – | – | – | – | – | –
CC(=O)OCC1OC(n2c(-c3ccccc3)c(N=Nc3ccc(Cl)cc3)c(C)c(C#N)c2=S)C(OC(C)=O)C(OC(C)=O)C1OC(C)=O (configuration not stated) | > 100 | 29.1 µM and > 100 µM | > 100 | > 100 | > 100 | 14.4 µM and 54.8 µM | 24.4 µM and > 100 µM | 43.7 µM and > 100 µM | 43.3 µM and > 100 µM | 63 µM and > 100 µM | 11.5 µM and 34.9 µM | 7.59 µM and 59.8 µM | 20.1 µM and > 100 µM | 6.95 µM and 34.6 µM | 5.26 µM and 51.2 µM | 4.01 µM and 10.4 µM | 10.2 µM and 28.2 µM | 11.2 µM and > 100 µM | 18 µM and > 100 µM
O=[N+]([O-])c1ccccc1S(=O)(=O)N1CCCc2cc(Cl)ccc21 | > 79.8 | > 100 µM | > 100 | > 100 | > 100 | > 100 µM | > 80.3 µM | 97.2 µM | > 100 µM | > 100 µM | – | – | – | – | – | – | – | – | –
CCOC(=O)c1c(OCC)[nH]c(=O)c(C(c2ccc(F)cc2)c2c(O)c(C(=O)OCC)c(OCC)[nH]c2=O)c1O | 29 | 40.4 µM | 29.5 | 31.7 | 36.5 | 25.9 µM | 60.7 µM | 23.5 µM | 33.1 µM | 39 µM | – | – | – | – | – | – | – | – | –
Cc1ccc(S(=O)/C=C(\NC(=O)OCc2ccccc2)C(F)(F)F)cc1 (configuration not stated) | > 100 | > 100 µM | > 100 | 71 | > 100 | > 100 µM | > 100 µM | 92.9 µM | > 100 µM | > 100 µM | – | – | – | – | – | – | – | – | –
CCC1=C(C)C2=NC1=CC1=NC(=C(CC)/C1=C/O)C=C1N=C3C(=C1C)C(=O)C(C(=O)OC)C3=C1NC(=C2)C(C)C1CCC(=O)OC (configuration not stated) | > 100 | > 100 µM | > 100 | > 100 | > 100 | > 100 µM | > 100 µM | > 100 µM | > 100 µM | > 100 µM | – | – | – | – | – | – | – | – | –
Nc1nc(Cl)cc(NCC2(CO)CC(CCCCc3ccccc3)C2)n1 (configuration not stated) | > 100 | > 100 µM | > 100 | > 100 | > 100 | > 100 µM | > 100 µM | > 100 µM | > 100 µM | > 100 µM | – | – | – | – | – | – | – | – | –
CC(C)(C)c1cc(C2COC(=O)COCCOCC(=O)OCCOCCO2)cc(C(C)(C)C)c1O (configuration not stated) | 64.2 | > 100 µM | > 100 | 37.2 | > 100 | > 100 µM | > 100 µM | > 100 µM | > 31.6 µM | 43 µM | – | – | – | – | – | – | – | – | –
COc1ccc2cc(C(=O)NCCc3ccccc3)ccc2c1OC | > 100 | > 100 µM | > 100 | > 100 | > 100 | > 100 µM | > 100 µM | 70.3 µM | > 100 µM | > 100 µM | – | – | – | – | – | – | – | – | –
CCCCCCc1cc(C=O)sc1-c1ccc(-c2sc(-c3ccc(-c4ccc(-c5cc(CCCCCC)c(-c6ccc(-c7sc(C=O)cc7CCCCCC)s6)s5)s4)s3)cc2CCCCCC)s1 | > 100 | > 100 µM | > 100 | > 100 | > 100 | > 100 µM | > 100 µM | > 100 µM | > 100 µM | > 100 µM | – | – | – | – | – | – | – | – | –
CC1(C)OC1CC/C(=C/CBr)CBr (configuration not stated) | 64.6 | – | 36.9 | 30.9 | 29 | 27.5 µM | 28.5 µM | 32.2 µM | 22.3 µM | 29.8 µM | – | – | – | – | – | – | – | – | –
CCCCc1cc2c(cc1O)CCC1C2CC[C@@]2(C)C1CC[C@@H]2O (some centres not stated) | 51.3 | > 100 µM | 39.2 | 29.7 | 63.5 | 39.2 µM | 30.4 µM | 59.3 µM | 39.3 µM | 50.9 µM | – | – | – | – | – | – | – | – | –
CCOc1ccc(N=NC2C(=O)N(C(=O)CC(=O)Nc3ccc(Cl)cc3)N=C2C)cc1 (configuration not stated) | > 100 | – | > 100 | > 100 | > 100 | > 100 µM | > 100 µM | > 100 µM | > 100 µM | > 100 µM | – | – | – | – | – | – | – | – | –
S=C1c2cc(Cl)ccc2NC(=NC2CCCC2)C2CSCN12 (configuration not stated) | > 100 | > 100 µM | > 100 | > 100 | > 100 | > 100 µM | > 100 µM | > 100 µM | > 100 µM | > 100 µM | – | – | – | – | – | – | – | – | –
CC(=O)c1ccc2c(c1)CC1(C2)Cc2cc3c(cc2C1)C(=O)CC3 (configuration not stated) | 0.963 | 13.2 µM | 25.7 | 35.2 | 12.2 | 11.9 µM | 26.4 µM | 3.39 µM | 28.8 µM | 7.48 µM | – | – | – | – | – | – | – | – | –
COC(=O)c1nc2c(C)c(O)c(O)c([C@H](C)CCC=C(C)C)c2o1 | 78.5 | > 100 µM | > 100 | 53.8 | > 100 | 28.4 µM | > 100 µM | 35.7 µM | > 100 µM | 96.2 µM | – | – | – | – | – | – | – | – | –
CC(=O)C1=CC=C/C1=N\Nc1ccccc1 | 4.95 | 19.2 µM | 28.4 | 23.4 | 38.7 | 29.8 µM | 5.68 µM | 8.64 µM | 9.02 µM | 20.5 µM | – | – | – | – | – | – | – | – | –
COc1ccc(N=NN2CCCC2)cc1 | > 100 | 60.7 µM | 39.3 | 29.9 | > 100 | > 100 µM | 78 µM | 66.7 µM | 37.2 µM | > 100 µM | – | – | – | – | – | – | – | – | –
